Reference: ChEMBL document CHEMBL5291721, “A preclinical secondary pharmacology resource illuminates target-adverse drug reaction associations of marketed drugs” (Nat Commun, 2023)

Assays:
[1] = target: T1, Alpha-1A adrenergic receptor (Homo sapiens, UniProt P35348); assay type: functional, cell-based
T1 sequence (P35348 whole entry): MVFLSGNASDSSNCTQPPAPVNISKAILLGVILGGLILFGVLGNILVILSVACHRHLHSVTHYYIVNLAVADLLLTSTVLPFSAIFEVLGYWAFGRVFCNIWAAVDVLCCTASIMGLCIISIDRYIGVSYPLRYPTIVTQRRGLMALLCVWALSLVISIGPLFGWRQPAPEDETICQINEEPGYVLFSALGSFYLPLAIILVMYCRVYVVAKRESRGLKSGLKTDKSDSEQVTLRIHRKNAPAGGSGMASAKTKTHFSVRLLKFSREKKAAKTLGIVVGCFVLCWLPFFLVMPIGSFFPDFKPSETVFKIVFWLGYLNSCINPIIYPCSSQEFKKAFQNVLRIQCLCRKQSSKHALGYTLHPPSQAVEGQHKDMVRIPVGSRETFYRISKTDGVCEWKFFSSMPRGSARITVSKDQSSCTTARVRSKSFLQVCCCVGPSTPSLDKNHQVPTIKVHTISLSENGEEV

[2] = target: T2, Muscarinic acetylcholine receptor M1 (Homo sapiens, UniProt P11229); assay type: functional, cell-based
T2 sequence (P11229 whole entry): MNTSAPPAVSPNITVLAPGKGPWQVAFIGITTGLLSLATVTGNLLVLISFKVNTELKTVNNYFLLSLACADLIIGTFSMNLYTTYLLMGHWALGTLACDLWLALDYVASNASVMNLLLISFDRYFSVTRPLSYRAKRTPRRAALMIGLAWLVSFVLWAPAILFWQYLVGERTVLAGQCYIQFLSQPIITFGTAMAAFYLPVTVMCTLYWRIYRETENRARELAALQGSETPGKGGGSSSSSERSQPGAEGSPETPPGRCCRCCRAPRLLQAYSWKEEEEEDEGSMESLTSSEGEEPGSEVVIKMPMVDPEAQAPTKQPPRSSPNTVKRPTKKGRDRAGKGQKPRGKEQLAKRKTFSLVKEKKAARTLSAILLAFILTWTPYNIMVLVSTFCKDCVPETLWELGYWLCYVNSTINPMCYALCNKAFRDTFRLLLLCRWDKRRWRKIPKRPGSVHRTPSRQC

[3] = target: Vascular endothelial growth factor receptor 2 (Homo sapiens, UniProt P35968); assay type: functional
Cannabinoid receptor 1 = Cannabinoid receptor 1 (Homo sapiens, UniProt P21554); assay type: functional, cell-based
[4] = target: T1, Alpha-1A adrenergic receptor; assay type: functional, cell-based; remark: listed apart in the source
[5] = target: Delta-type opioid receptor (Homo sapiens, UniProt P41143)
Progesterone receptor = target: T3, Progesterone receptor (Homo sapiens, UniProt P06401); assay type: functional
T3 sequence (P06401 whole entry): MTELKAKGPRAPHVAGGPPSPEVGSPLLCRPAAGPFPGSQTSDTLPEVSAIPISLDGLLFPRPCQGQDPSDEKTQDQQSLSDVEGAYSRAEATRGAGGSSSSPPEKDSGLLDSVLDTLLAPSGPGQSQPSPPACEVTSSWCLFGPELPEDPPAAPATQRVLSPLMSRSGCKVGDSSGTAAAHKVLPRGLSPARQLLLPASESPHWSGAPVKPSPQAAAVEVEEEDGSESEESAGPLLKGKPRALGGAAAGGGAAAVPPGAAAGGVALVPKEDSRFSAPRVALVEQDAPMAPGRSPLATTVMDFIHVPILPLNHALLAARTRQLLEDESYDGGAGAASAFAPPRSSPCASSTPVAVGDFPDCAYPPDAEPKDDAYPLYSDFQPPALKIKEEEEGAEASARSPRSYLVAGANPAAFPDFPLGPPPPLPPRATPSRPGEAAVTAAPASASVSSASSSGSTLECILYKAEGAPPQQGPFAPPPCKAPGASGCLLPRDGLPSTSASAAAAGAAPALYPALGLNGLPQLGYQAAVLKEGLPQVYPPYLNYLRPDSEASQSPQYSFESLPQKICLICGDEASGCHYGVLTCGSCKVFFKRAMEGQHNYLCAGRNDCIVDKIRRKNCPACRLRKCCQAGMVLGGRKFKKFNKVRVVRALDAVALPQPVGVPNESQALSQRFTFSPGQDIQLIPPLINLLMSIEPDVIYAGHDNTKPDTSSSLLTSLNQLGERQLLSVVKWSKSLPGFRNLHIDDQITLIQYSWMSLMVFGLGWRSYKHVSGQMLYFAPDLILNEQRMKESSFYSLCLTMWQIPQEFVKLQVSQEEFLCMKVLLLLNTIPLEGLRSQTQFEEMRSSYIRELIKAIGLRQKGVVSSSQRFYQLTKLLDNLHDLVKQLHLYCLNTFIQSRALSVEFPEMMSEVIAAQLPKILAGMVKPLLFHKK

Thromboxane A2 receptor = target: T4, Thromboxane A2 receptor (Homo sapiens, UniProt P21731)
T4 sequence (P21731 whole entry): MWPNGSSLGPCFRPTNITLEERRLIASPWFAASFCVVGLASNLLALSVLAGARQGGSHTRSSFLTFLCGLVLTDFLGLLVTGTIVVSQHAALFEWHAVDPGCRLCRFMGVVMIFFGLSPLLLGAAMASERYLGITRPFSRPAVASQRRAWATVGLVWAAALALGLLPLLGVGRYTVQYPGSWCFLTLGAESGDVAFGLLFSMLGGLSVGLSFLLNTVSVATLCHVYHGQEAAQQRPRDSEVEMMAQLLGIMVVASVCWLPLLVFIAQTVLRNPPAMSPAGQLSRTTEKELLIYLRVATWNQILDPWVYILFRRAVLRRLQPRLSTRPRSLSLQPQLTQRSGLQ

[6] = target: T5, Equilibrative nucleoside transporter 1 (Homo sapiens, UniProt Q99808)
T5 sequence (Q99808 whole entry): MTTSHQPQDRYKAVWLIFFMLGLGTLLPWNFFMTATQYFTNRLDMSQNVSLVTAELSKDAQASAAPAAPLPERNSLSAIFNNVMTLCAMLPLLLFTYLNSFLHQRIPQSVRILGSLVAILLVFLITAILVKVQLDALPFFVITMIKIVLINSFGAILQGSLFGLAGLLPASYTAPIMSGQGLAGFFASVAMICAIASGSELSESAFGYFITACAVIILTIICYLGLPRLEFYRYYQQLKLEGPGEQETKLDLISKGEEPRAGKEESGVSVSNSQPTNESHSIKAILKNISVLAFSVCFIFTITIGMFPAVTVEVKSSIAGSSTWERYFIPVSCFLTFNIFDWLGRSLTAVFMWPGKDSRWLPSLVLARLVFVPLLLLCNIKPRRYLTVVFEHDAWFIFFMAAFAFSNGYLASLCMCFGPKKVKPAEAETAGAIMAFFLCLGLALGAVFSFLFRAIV

[7] = target: Sodium-dependent noradrenaline transporter (Homo sapiens, UniProt P23975)
Note: assay procedure not described here.

Sequence of Sodium-dependent noradrenaline transporter (P23975 whole entry): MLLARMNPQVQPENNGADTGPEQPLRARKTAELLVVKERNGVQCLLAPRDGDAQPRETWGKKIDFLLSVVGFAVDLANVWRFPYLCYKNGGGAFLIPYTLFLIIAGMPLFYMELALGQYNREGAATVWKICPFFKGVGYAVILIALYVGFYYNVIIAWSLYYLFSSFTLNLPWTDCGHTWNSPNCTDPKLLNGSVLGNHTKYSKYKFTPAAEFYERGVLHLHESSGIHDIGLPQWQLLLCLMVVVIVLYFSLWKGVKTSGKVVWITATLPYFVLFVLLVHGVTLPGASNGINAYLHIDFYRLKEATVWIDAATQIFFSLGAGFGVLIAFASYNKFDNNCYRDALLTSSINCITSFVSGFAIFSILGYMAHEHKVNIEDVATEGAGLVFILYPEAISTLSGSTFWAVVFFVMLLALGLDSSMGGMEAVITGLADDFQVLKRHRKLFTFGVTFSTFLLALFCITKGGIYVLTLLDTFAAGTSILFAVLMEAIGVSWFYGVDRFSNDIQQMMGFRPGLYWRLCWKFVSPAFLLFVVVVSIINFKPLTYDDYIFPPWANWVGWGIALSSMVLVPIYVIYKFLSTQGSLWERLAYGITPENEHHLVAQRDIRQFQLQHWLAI
Sequence of Vascular endothelial growth factor receptor 2 (P35968 whole entry): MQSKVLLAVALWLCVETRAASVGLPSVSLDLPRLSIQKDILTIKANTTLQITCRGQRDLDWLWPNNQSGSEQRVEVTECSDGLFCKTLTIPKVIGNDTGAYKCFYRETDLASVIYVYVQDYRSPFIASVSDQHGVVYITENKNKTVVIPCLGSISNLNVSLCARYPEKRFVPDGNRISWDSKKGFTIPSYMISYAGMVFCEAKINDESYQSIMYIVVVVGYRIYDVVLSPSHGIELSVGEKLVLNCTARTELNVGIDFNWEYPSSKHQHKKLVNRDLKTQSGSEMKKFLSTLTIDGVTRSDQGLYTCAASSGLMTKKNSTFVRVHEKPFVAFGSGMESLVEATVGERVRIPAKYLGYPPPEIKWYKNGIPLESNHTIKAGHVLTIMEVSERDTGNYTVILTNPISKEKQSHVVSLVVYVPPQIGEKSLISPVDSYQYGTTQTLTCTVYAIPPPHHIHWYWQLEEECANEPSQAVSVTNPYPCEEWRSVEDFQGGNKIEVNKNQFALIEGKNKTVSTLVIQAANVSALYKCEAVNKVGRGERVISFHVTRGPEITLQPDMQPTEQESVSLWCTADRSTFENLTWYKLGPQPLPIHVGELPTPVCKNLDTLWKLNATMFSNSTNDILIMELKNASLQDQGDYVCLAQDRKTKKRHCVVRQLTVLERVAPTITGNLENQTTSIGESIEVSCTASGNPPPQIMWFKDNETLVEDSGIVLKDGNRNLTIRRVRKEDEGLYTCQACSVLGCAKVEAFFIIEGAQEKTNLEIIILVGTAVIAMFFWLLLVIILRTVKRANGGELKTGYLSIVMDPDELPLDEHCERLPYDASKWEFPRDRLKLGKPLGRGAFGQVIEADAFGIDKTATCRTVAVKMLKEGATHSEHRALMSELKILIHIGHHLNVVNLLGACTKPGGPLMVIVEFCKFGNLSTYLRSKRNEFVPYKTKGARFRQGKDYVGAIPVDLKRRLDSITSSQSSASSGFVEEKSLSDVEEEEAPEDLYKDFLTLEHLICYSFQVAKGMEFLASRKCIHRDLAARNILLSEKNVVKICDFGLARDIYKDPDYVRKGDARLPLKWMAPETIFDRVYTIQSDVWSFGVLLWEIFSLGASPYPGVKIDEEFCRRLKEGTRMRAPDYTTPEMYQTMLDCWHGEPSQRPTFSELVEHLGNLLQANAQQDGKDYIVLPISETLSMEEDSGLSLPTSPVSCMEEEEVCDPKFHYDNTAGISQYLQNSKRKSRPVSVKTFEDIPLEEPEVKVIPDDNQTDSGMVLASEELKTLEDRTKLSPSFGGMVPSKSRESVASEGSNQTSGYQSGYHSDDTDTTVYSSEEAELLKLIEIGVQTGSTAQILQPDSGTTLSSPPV
Sequence of Delta-type opioid receptor (P41143 whole entry): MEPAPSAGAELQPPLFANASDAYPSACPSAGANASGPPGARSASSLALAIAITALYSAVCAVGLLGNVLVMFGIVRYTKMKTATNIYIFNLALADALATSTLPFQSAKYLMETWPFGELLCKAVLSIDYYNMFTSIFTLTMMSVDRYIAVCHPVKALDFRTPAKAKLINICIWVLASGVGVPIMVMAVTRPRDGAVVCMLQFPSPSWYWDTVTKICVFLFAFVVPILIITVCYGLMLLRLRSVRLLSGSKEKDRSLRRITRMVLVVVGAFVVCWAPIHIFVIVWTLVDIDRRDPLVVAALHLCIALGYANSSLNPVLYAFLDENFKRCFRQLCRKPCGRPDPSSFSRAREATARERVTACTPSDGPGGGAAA
Sequence of Cannabinoid receptor 1 (P21554 whole entry): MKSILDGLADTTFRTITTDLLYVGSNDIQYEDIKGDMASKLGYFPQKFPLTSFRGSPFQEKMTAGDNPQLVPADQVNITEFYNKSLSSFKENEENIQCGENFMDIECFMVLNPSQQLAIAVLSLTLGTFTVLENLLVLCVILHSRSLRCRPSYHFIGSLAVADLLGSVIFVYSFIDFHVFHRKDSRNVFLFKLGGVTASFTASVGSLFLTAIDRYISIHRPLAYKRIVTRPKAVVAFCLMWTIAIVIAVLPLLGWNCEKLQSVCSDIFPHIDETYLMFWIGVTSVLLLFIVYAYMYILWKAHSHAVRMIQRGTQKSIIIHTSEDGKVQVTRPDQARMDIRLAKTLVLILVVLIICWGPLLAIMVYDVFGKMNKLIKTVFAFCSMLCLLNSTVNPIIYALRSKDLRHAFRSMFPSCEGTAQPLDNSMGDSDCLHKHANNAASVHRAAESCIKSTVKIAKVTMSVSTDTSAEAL

AC50 (Cannabinoid receptor 1) [µM]	AC50 [4] [µM]	AC50 [5] [µM]	AC50 (Progesterone receptor) [µM]	AC50 (Thromboxane A2 receptor) [µM]	AC50 [6] [µM]	AC50 [7] [µM]	SMILES	AC50 [1] [µM]	AC50 [2] [µM]	AC50 [3] [µM]
							CN1CCC[C@@H]1Cc1c[nH]c2ccc(CCS(=O)(=O)c3ccccc3)cc12	> 30		
							O=C(Nc1cccc2c(=O)cc(-c3nnn[nH]3)oc12)c1ccc(OCCCCc2ccccc2)cc1	> 30	> 30	
							O=S(=O)(O)CCS [2-MERCAPTOETHANESULFONIC ACID]	> 30		> 30
> 30	> 30	> 30	3.8	29	> 30	> 30	CCc1oc2ccccc2c1C(=O)c1cc(Br)c(O)c(Br)c1 [BENZBROMARONE]			
							O=C(O)CCCc1ccc(N(CCCl)CCCl)cc1 [CHLORAMBUCIL]	> 30		> 30
> 30	> 30	> 10	21.9	> 30	> 30	0.409	[H]/N=C(\N/C(=N/[H])NCCCCCCNC(=N)NC(=N)Nc1ccc(Cl)cc1)Nc1ccc(Cl)cc1 [CHLORHEXIDINE]			
							CN(C)CCN(Cc1ccc(Cl)cc1)c1ccccn1 [CHLOROPYRAMINE]	6.52		> 30
> 30	> 30	> 30	> 30	> 30	> 30	> 30	COC(=O)[C@H](c1ccccc1Cl)N1CCc2sccc2C1 [CLOPIDOGREL]			
							N[C@@H](CSSC[C@H](N)C(=O)O)C(=O)O [CYSTINE]	> 30	> 30	
							Cn1c(=O)c2c(ncn2CC(O)CO)n(C)c1=O (configuration not stated) [DYPHYLLINE]	> 30		> 30
> 30	> 30	> 30	> 30	> 30	> 30	> 30	Nc1nc(O)c2ncn(COC(CO)CO)c2n1 [GANCICLOVIR]			
							CC1(C)O[C@@H]2C[C@H]3[C@@H]4CCC5=CC(=O)CC[C@]5(C)[C@@]4(F)[C@@H](O)C[C@]3(C)[C@]2(C(=O)CCl)O1 [HALCINONIDE]	> 30		> 30
							CC(C)(N)C(=O)N[C@H](Cc1c[nH]c2ccccc12)C(=O)N[C@H](Cc1c[nH]c2ccccc12)NC=O [MACIMORELIN]	> 30	> 30	

SMILES	AC50 (Cannabinoid receptor 1) [µM]	AC50 [4] [µM]	AC50 [5] [µM]	AC50 (Progesterone receptor) [µM]	AC50 (Thromboxane A2 receptor) [µM]	AC50 [6] [µM]	AC50 [7] [µM]	AC50 [1] [µM]	AC50 [2] [µM]	AC50 [3] [µM]
C#Cc1cccc(Nc2ncnc3cc(OCCOC)c(OCCOC)cc23)c1 [ERLOTINIB]	> 30	> 30	> 30	> 30		29	> 30	> 30		
